Data taken from US6515022B2, “Use of inhaled retinoids in the treatment of lung diseases” (Sloan-Kettering Institute for Cancer Research, priority 1996, dated 2003).
≈ marks a conversion by molar mass, not a printed value. Like-named read-outs stand apart in the source and are kept apart here.

Tests used:
physchem [1] = details: HCFC-123 without alkylamine, organic solvent or mixture
[2] = Histologic examination of lungs and trachea after single-dose administration; details: rat
Method: Animals were sacrificed at 5 minutes and at 1, 2, 4 and 6 hours, and blood and liver and lung tissue were harvested for analysis by high performance liquid chromatography (HPLC) and histology. In addition, animals receiving the inhalant were sacrificed at 24 hours post-treatment.

physchem [3] = details: organic solvent or mixture, thermodynamic from solid
Method: Maximum solubility was determined by weighing the residue remaining after evaporation of the solvent.

[4] = Attempts at aqueous solutions (MOLECUSOL, ammonium salt); type: physicochemical; details: solutions containing 45% MOLECUSOL (modified beta cyclodextrin)
From the text: Next, because of a report that the solubility of retinol (vitamin A) in water could be increased by addition of modified beta cyclodextrin (MOLECUSOL®), we next tried to prepare aqueous solutions of all-trans retinoic acid using MOLECUSOL® to enhance the solubility. […] Similarly, efforts to solubilize all-trans retinoic acid in aqueous solution using phosphatidylcholine and phosphatidylethanolamine produced a viscous colloid which was unsuited for aerosol administration.
We next tried to use salts of the retinoids to obtain a water-soluble product for aerosol generation. When all-trans retinoic acid is treated with ammonium hydroxide, a water-soluble ammonium salt is obtained. The pH of solutions of this salt is too high (pH >10), however, for direct administration as an aerosol. Neutralization of the solution after dissolution of the retinoid led to the formation of a precipitate, both in the presence and absence of added beta cyclodextrin.

in vivo = details: rat
Method: The biodistribution and pharmacokinetics of an inhaled formulation of all-trans retinoic acid were compared to both intra-tracheal and intravenous administration. Anesthetized (i.p. pentobarbitol 50 mg/kg) male Sprague-Dawley rats weighing 300 to 700 grams were treated by administration of all-trans retinoic acid by inhalation, iv injection or intra-tracheal injection. Inhaled and intra-tracheal injections were given through an endotracheal tube placed under direct vision over a guidewire as described by Weksler et al., J. Appl. Physiol. 76: 1823-1825 (1994). IV doses were given by catheter injection via the right external jugular vein.
For inhalation, all-trans retinoic acid was solublized in hydrofluorocarbon 123 using tetramethylamunonium hydroxide to a concentration of 5 mg/ml, and combined with hydrofluoroalkane 134a as propellant, for a final concentration of 1.5 mg per 1.475 grams of propellant solution. […] An identical inhaler containing propellant mixture without drug was used as a control. […] This procedure was also repeated with an angiocatheter fitted to the apparatus. The catheter was subsequently rinsed with 10 ml of isopropanol, which was also collected. The three solutions were then assayed for all-trans retinoic acid concentrations in order to determine the amount of drug delivered through the apparatus, as well as any residual drug that was bound to the angiocatheter. We defined the area under the concentration times-time curve (AUC) for animals who received intra-tracheal all-trans retinoic acid as 100% effective dose delivery to the lung.
For injection, an aqueous solution of all-trans retinoic acid was prepared in 20% ethanol, 10% Tween 20 and 1 mM NH4OH, for a final concentration of […] all-trans retinoic acid per ml of solution. A mixture of 20% ethanol and 10% Tween 20 served as a control.
Animals were grouped into three experimental groups and two control groups. The control groups received no treatment or a control inhalant containing no all-trans retinoic acid. Animals in the groups receiving iv or intra-tracheal injections each received a single dose containing 250 μg all-trans retinoic acid. Animals in the group treated with the multidose inhaler each received three doses for a total of 147 μg of all-trans retinoic acid.

[5] = Solubility in chlorofluorocarbons with alkylamine solubilizers
[6] = Tissue/plasma concentrations after intra-tracheal instillation (HPLC); type: in vivo, Sprague-Dawley rats; details: Sprague-Dawley, other: intra-tracheal instillation, rat, 100 μg intra-tracheal instillation
Method: To evaluate the bioavailability of retinoids delivered by inhalation, 100 μl of an aqueous solution containing 100 μg of all-trans retinoic acid was administered via intra-tracheal instillation to 3 Sprague-Dawley rats, each weighing approximately 200 g. One rat was then sacrificed at three time points: 1, 6 and 24 hours after treatment. At the time of sacrifice, the chest cavity was opened, both lungs and trachea were removed en bloc, and the right and left lungs were separated by dissection. The liver was also removed, along with a sample of blood obtained by cardiac puncture. The blood sample was separated by centrifugation, and plasma plus each of the aforementioned tissues were frozen for later analysis. Subsequently, the tissue was homogenized, and the homogenized tissue and plasma were extracted with ethanol.

[7] = male, Sprague-Dawley, inhaled or intranasal, 147 ug
[8] = male, Sprague-Dawley, iv, 250 ug
[9] = left lung, read-out: Left Lung concentration
[10] = liver, read-out: Liver concentration
[11] = plasma, read-out: Plasma concentration
[12] = right lung, read-out: Right Lung concentration
[13] = trachea, read-out: Trachea concentration

Question: With CC1=C(/C=C/C(C)=C/C=C/C(C)=C/C(=O)O)C(C)(C)CCC1 [all-trans retinoic acid] as the molecule, how does the solubility (physchem [1]) read?
Answer: ~2000 µg/mL (≈ 6.66 mM)

Question: What about the “Histologic examination of lungs and traches” value [2] of the same molecule?
Answer: no focal irritation attributable to the drug

Question: And the solubility (physchem [3]; ethyl acetate)?
Answer: 10000 µg/mL (≈ 33.3 mM)

Question: And the solubility (physchem [3]; methylene chloride)?
Answer: 5000 µg/mL (≈ 16.6 mM)

Question: And the “Solubility in aqueous solution” value [4]?
Answer: enhance the solubility of the all-trans retinoic acid to a useful level

Question: And the “Lung AUC, intra-tracheal route relative to aerosolized route” value (in vivo; male, Sprague-Dawley)?
Answer: 100 times

Question: And the concentration at 1 hour (in vivo; male, Sprague-Dawley)?
Answer: 68 ± 44 ng/mL

Question: And the AUC (in vivo; male, Sprague-Dawley, 250 ug)?
Answer: 191 ng·h/mL

Question: And the “Liver AUC” value (in vivo; male, Sprague-Dawley, 250 ug)?
Answer: 2532 ng-hr/gm

Question: What about the “Lung AUC” value (in vivo; male, Sprague-Dawley, 250 ug) of the same molecule?
Answer: 26972 ng-hr/gm

Question: And the half-life (in vivo; male, Sprague-Dawley, 250 ug, Liver T½)?
Answer: 22 h

Question: And the half-life (in vivo; male, Sprague-Dawley, 250 ug, Lung T½)?
Answer: 17.7 h

Question: And the half-life (in vivo; male, Sprague-Dawley, 250 ug, Plasma T½)?
Answer: 1.9 h

Question: And the AUC (in vivo; [7])?
Answer: 171 ng·h/mL

Question: What about the “Liver AUC” value (in vivo; [7]) of the same molecule?
Answer: 2307 ng-hr/gm

Question: What about the “Lung AUC” value (in vivo; [7]) of the same molecule?
Answer: 262 ng-hr/gm

Question: What about the half-life (in vivo; male, Sprague-Dawley, inhaled or intranasal, 147 ug, Lung T½) of the same molecule?
Answer: 5.4 h

Question: What about the half-life (in vivo; male, Sprague-Dawley, inhaled or intranasal, 147 ug, Plasma T½) of the same molecule?
Answer: 3 h

Question: And the “Total absorption (percent effective dose: inhaled AUC / intra-tracheal AUC)” value (in vivo; male, Sprague-Dawley, inhaled or intranasal, 250 ug)?
Answer: 1-2%

Question: What about the AUC (in vivo; [8]) of the same molecule?
Answer: 1380 ng·h/mL

Question: And the “Liver AUC” value (in vivo; [8])?
Answer: 4724 ng-hr/gm

Question: What about the “Liver T½” value (in vivo; [8]) of the same molecule?
Answer: 0.8 h

Question: And the “Lung AUC” value (in vivo; [8])?
Answer: 11910 ng-hr/gm

Question: What about the half-life (in vivo; male, Sprague-Dawley, iv, 250 ug, Liver T½) of the same molecule?
Answer: 1 h

Question: And the half-life (in vivo; male, Sprague-Dawley, iv, 250 ug, Lung T½)?
Answer: 1.9 h

Question: What about the “Lung AUC, intra-tracheal route relative to iv route” value (in vivo) of the same molecule?
Answer: twice

Question: What about the “Maximum Solubility” value ([5]; HCFC-123, alkylamine 1.44 mg/ml) of the same molecule?
Answer: ˜17 mg/ml

Question: What about the “Maximum Solubility” value ([5]; HCFC-123, alkylamine 7.22 mg/ml) of the same molecule?
Answer: ˜44 mg/ml

Question: What about the concentration at 1 hour [6, 9] of the same molecule?
Answer: 928 ng/g

Question: And the concentration at 6 hours [6, 9]?
Answer: 56 ng/g

Question: And the concentration at 24 hours [6, 9]?
Answer: 22 ng/g

Question: And the concentration at 1 hour [6, 10]?
Answer: 233 ng/g

Question: And the concentration at 6 hours [6, 10]?
Answer: 24 ng/g

Question: What about the concentration at 24 hours [6, 10] of the same molecule?
Answer: 23 ng/g

Question: What about the concentration at 1 hour [6, 11] of the same molecule?
Answer: 123 ng/mL

Question: What about the concentration at 24 hours [6, 11] of the same molecule?
Answer: 178 ng/mL

Question: What about the concentration at 1 hour [6, 12] of the same molecule?
Answer: 773 ng/g

Question: And the concentration at 6 hours [6, 12]?
Answer: 91 ng/g

Question: What about the concentration at 24 hours [6, 12] of the same molecule?
Answer: 21 ng/g

Question: And the concentration at 1 hour [6, 13]?
Answer: 2860 ng/g

Question: What about the concentration at 6 hours [6, 13] of the same molecule?
Answer: 96 ng/g

Question: What about the concentration at 24 hours [6, 13] of the same molecule?
Answer: 30 ng/g
